Laboratory results reported in patent US11414450B1, “Aminoglycosides and uses thereof” (REVAGENIX, INC., priority 2017, dated 2022).
Converted amounts (≈) assume the structure as drawn.

How the values were obtained:
P. aeruginosa ATCC 27853 = test: MIC broth microdilution, P. aeruginosa ATCC 27853; type: cell-based; conditions: for Geometric Mean MIC values, P. aeruginosa ATCC 27853: Table 2, strain contains aph(3′)-IIb; for MIC: Pseudomonas aeruginosa, ATCC27853, P. aeruginosa ATCC 27853, contains aph(3′)-IIb, read-out: Geometric Mean MIC values, P. aeruginosa ATCC 27853
Procedure: (§1) Minimum inhibitory concentrations for the example compounds herein are determined by the broth microdilution method in accordance with the Clinical and Laboratory Standards Institute (CLSI) guidelines. In brief, organism suspensions are adjusted to a 0.5 McFarland standard to yield a final inoculum between 3×10^5 and 7×10^5 colony-forming units (CFU)/mL. Compound dilutions and inocula are made in sterile, cation adjusted Mueller-Hinton Broth (Beckton Dickinson). The inoculum is prepared by suspension of a colony from an agar plate that is prepared the previous day. Bacteria are suspended in sterile saline and added to each assay plate to obtain a final concentration of 5×10^5 CFU/mL. An inoculum volume of 100 μL is added to wells containing 100 μL of broth with 2-fold serial dilutions of the compound. All inoculated microdilution trays are incubated in ambient air at 35° C. for 18-24 hours. Following incubation, the lowest concentration of the compound that prevents visible growth (OD 600 nm<0.05) is recorded as the MIC. […] Performance of the assay is monitored by the use of laboratory quality-control strains and a compound with a defined MIC spectrum (such as levofloxacin), in accordance with CLSI guidelines. Compounds are tested against multiple microbiologic panels. Panels include: 1) a multi-species primary screening panel that includes multiple defined AG-R mechanisms; 2) a panel of isogenic strains carrying different common mechanisms of AG-R that allows characterization of the SAR for AMEs, RMTs, and entry and efflux resistance mechanisms; and 3) panels of recent clinical isolates selected from Phase 3 studies and ongoing global surveillance.

[1] = test system: P. aeruginosa efflux parent; test: MIC broth microdilution, P. aeruginosa efflux parent strain; type: cell-based; conditions: for Geometric Mean MIC values, P. aeruginosa efflux parent: Table 2; for MIC: Pseudomonas aeruginosa, P. aeruginosa efflux parent strain, read-out: Geometric Mean MIC values, P. aeruginosa efflux parent
Procedure: as §1

[2] = test system: P. aeruginosa Δefflux (MexAB-OprM, MexCD-OprJ, MexEF-OprN knocked out); test: MIC broth microdilution, P. aeruginosa Δefflux strain; type: cell-based
Procedure: as §1

translation = test: Translation Inhibition Assay; type: biochemical
From the text: Biological Example 2: Translation Inhibition Assay

[3] = Table 2, MexEF-OprN efflux pumps knocked out
[4] = P. aeruginosa Δefflux, MexEF-OprN efflux pumps knocked out

SMILES	Geometric Mean MIC values, P. aeruginosa ATCC 27853 (P. aeruginosa ATCC 27853) [µg/mL]	Geometric Mean MIC values, P. aeruginosa efflux parent [1] [µg/mL]	Geometric Mean MIC values, P. aeruginosa Δefflux [2, 3] [µg/mL]	IC50 (translation; Table 2) [nM]	MIC (P. aeruginosa ATCC 27853) [µg/mL]	MIC [1] [µg/mL]	Geometric Mean MIC values, P. aeruginosa Δefflux [2, 4] [µg/mL]	IC50 (translation; translation inhibition assay) [nM]
NCC1OC(OC2C(CO)OC(OC3C(O)C(N)CC(N)C3OC3OC(CN)C(O)C(F)C3N)C2O)C(N)C(O)C1O (stereo not drawn) [drawing 882]	1	2	0.5	10	–	–	–	–
CC(N)C1CCC(N)C(OC2C(N)CC(N)C(O)C2OC2OC(CO)C(OC3OC(CN)C(O)C(O)C3N)C2O)O1 (stereo not drawn) [drawing 874]	2	4	0.5	14	–	–	–	–
CC(N)C1CCC(N)C(OC2C(N)CC(N)C(O)C2OC2OC(CO)C(OC3OC(CN)C(O)C(O)C3N)C2O)O1 (stereo not drawn) [drawing 873]	0.84	1.2	0.42	12	–	–	–	–
NC[C@@H]1CC[C@@H](N)[C@@H](O[C@@H]2[C@@H](N)[C@H](O)[C@@H](N)[C@H](O)[C@H]2O[C@@H]2O[C@H](CO)[C@@H](O[C@H]3O[C@@H](CN)[C@@H](O)[C@H](O)[C@H]3N)[C@H]2O)O1 [drawing 890]	–	–	–	–	0.5 (≈ 0.835 µM)	1 (≈ 1.67 µM)	0.25	7.9
NCC1OC(OC2C(N)CC(N)C(O)C2OC2OC(CO)C(OC3OC(CN)C(O)C(O)C3N)C2O)C(N)CC1O (stereo not drawn) [drawing 880, reference compound]	0.25	0.5	0.25	8.5	–	–	–	–
CCC(N)C1CCC(N)C(OC2C(N)CC(N)C(O)C2OC2OC(CO)C(OC3OC(CN)C(O)C(O)C3N)C2O)O1 (stereo not drawn) [drawing 877]	1	2	0.5	26	–	–	–	–
NCC1OC(OC2C(CO)OC(OC3C(O)C(N)CC(N)C3OC3OC(CN)C(O)C(F)C3N)C2O)C(N)C(O)C1O (stereo not drawn) [drawing 884]	4	8	2	100	–	–	–	–
CO[C@@H]1[C@@H](O[C@@H]2O[C@H](CO)[C@@H](O[C@H]3O[C@@H](CN)[C@@H](O)[C@H](O)[C@H]3N)[C@H]2O)[C@H](O[C@H]2O[C@H](CN)CC[C@H]2N)[C@@H](N)C[C@H]1N [drawing 891]	–	–	–	–	1 (≈ 1.68 µM)	1 (≈ 1.68 µM)	0.25	5.7
NC[C@@H]1O[C@H](O[C@H]2[C@@H](O)[C@H](O[C@@H]3[C@@H](O)[C@H](N)C[C@H](N)[C@H]3O[C@H]3O[C@H](CN)[C@H](O)[C@H](F)[C@H]3N)O[C@@H]2CO)[C@H](N)[C@@H](O)[C@@H]1O	1	2	0.5	18	–	–	–	–
CCC(N)C1CCC(N)C(OC2C(N)CC(N)C(O)C2OC2OC(CO)C(OC3OC(CN)C(O)C(O)C3N)C2O)O1 (stereo not drawn) [drawing 876]	1.4	2	0.5	32	–	–	–	–
NCC1OC(OC2C(CO)OC(OC3C(O)C(N)CC(N)C3OC3OC(CN)C(O)C(F)C3O)C2O)C(N)C(O)C1O (stereo not drawn) [drawing 883]	2	4	0.5	24	–	–	–	–
NCC1OC(OC2C(CO)OC(OC3C(O)C(N)CC(N)C3OC3OC(C4(N)CC4)CCC3N)C2O)C(N)C(O)C1O (stereo not drawn) [drawing 875]	2	2	0.25	7.5	–	–	–	–
